The source of these data is US20180203025A1, “HDL THERAPY MARKERS” (Cerenis Therapeutics Holding SA, priority 2014, published 2018).

The test concerns ABCA1 mRNA in mouse macrophages (J774). The experiment in a line: ABCA1 gene expression (real-time PCR) in J774 macrophages. It is filed as cell-based. On the procedure:
Use the same amount of cDNA for all samples (4 μl of 20 μL RT reaction on 0.5 or 1 μg RNA). For each sample (to be run in triplicate), sample the following into a nuclease-free 1.5-mL microcentrifuge tube (add the volume for 2 samples more to calculate the final volume of PCR reaction mix): 2× TaqMan® Gene Expression Master Mix: 10 μl; 20× TaqMan® Gene Expression Assay: 1 μl; Nuclease free H2O: 5 μl. Cap the tube and invert it several times to mix the reaction components. Centrifuge the tube briefly.
J774 were seeded on 6× well plates (300,000 cells/well) and loaded with oxidized-LDL without the use of ^3H-cholesterol. […] Gene expression was assayed using the protocols described in Sections 8.3.2 (RNA extraction); 8.3.4 (reverse transcription), and 8.3.5 (qPCR). ABCA1 gene expression was determined with Taqman probe Mm00442646.m1 according to the manufacturer's protocol. The reference gene used is HPRT1 (Taqman probe: Mm00446968.m1).
J774 were seeded on 6 well plates (300,000 cells/well) and loaded with oxidized-LDL. […] Gene expression was assayed using the protocols described in Sections 8.3.2 (RNA extraction); 8.3.4 (reverse transcription), and 8.3.5 (qPCR). SR-BI gene (Taqman probe Mm00450234.m1), ABCG1 (Taqman probe Mm00437390.m1), SREBP1 (Taqman probe Mm01138344.m1) and ABCA1 (Taqman probe Mm00442646.m1) expression were determined according to the manufacturer's protocol. The reference gene used is HPRT1 (Taqman probe: Mm00446968.m1).
This study examined the kinetics of decreasing the mRNA level of ABCA1 in J774 macrophages. J774 were seeded on 6 well plates (300,000 cells/well) and loaded with oxidized-LDL. […] Gene expression was assayed using the protocols described in Sections 8.3.2 (RNA extraction); 8.3.4 (reverse transcription), and 8.3.5 (qPCR). ABCA1 (Taqman probe Mm00442646.m1) expression was determined according to the manufacturer's protocol. The reference gene used is HPRT1 (Taqman probe: Mm00446968.m1).
(§1) J774 were seeded on 6 well plates (300,000 cells/well) and loaded with oxidized-LDL. […] Gene expression was assayed using the protocols described in Sections 8.3.2 (RNA extraction); 8.3.4 (reverse transcription), and 8.3.5 (qPCR). ABCG1 (Taqman probe Mm00437390.m1) and ABCA1 (Taqman probe Mm00442646.m1) expression were determined according to the manufacturer's protocol. The reference gene used is HPRT1 (Taqman probe: Mm00446968.m1).
as §1
J774 were seeded on 6 well plates (600,000 cells/well) in DMEM 10% FCS. […] Medium was removed and the macrophages were washed with DMEM. […] Gene expression was assayed using the protocols described in Sections 8.3.2 (RNA extraction); 8.3.4 (reverse transcription), and 8.3.5 (qPCR). ABCG1 (Taqman probe Mm00437390.m1), ABCA1 (Taqman probe Mm00442646.m1) and SR-BI (Taqman probe Mm00450234.m1) expression were determined according to the manufacturer's protocol. The reference gene used is HPRT1 (Taqman probe: Mm00446968.m1).
J774 were seeded on 6 well plates (300,000 cells/well) in DMEM 2.5% FCS. […] The next day, medium was replaced by fresh DMEM supplemented with or without ApoA-I (25 or 250 μg/mL) to initiate ApoA-I cholesterol efflux for 2 hours. The experiment was stopped at different time points: 1) J774 stopped before addition of ApoA-I, 2) J774+DMEM (passive efflux for 2 hours), 3) J774+ApoA-I (25 μg/mL) for 2 hours and 4) J774+ApoA-I (250 μg/mL) for 2 hours. The RNA was extracted with the RiboPure™ kit according to the manufacturer's protocol.
(Real-time PCR tracks product formation cycle by cycle.)

With “CER-001: engineered recombinant human apolipoprotein A-I HDL with sphingomyelin and DPPG; protein-to-phospholipid ratio 1:2.7, 97% Sph and 3% DPPG”, the “ABCA1 mRNA expression” value (Study A, oxidized-LDL loaded, 25, 250 and 1000 μg/mL, 6 hours) is “decreased the ABCA1 mRNA at all the doses”. Besides, the “dose for diminishing half of the ABCA1 level” value (Study E, 6 hours) was “around 7.5 μg/mL”. Further, the “time to decrease half of the ABCA1 mRNA level” value (Study F, 25 or 250 μg/mL) stood at 4 h. Also, the “ABCA1 mRNA level” value reads like this: (Study G, 250 μg/mL, 6 hours, without cAMP) “decreased”; (Study J, 24 hours treatment, 250 μg/mL) “decrease”; (Study L, overnight pre-incubation at 250 μg/mL) “strongly decreased the ABCA1 mRNA level”. For the setting “Study G, overnight cAMP 300 μM, then 250 μg/mL 6 hours”, the “ABCA1 mRNA level (RQ)” value was 1. Also, the “effect of cAMP activation on CER-001 dose decreasing ABCA1” value (Study I) was “did not change the sufficient dose of CER-001”. For the same compound, the “dose of maximum decrease of ABCA1 mRNA level” value (Study I, 6 hours) is listed as “around 15 μg/mL”. For the same compound, the “doses at which decrease of ABCA1 mRNA level was observed” value (Study I, 6 hours, presence or absence of cAMP) was in the range of 4 to 6 µg/mL. Moreover, the “time for ABCA1 mRNA level to return to baseline after removal” value (Study J, after 24 hours at 250 μg/mL) was “more than 8 hours”.
On to `OC[C@H]1O[C@@H]2O[C@H]3[C@H](O)[C@@H](O)[C@@H](O[C@H]4[C@H](O)[C@@H](O)[C@@H](O[C@H]5[C@H](O)[C@@H](O)[C@@H](O[C@H]6[C@H](O)[C@@H](O)[C@@H](O[C@H]7[C@H](O)[C@@H](O)[C@@H](O[C@H]8[C@H](O)[C@@H](O)[C@@H](O[C@H]1[C@H](O)[C@H]2O)O[C@@H]8CO)O[C@@H]7CO)O[C@@H]6CO)O[C@@H]5CO)O[C@@H]4CO)O[C@@H]3CO` [β-cyclodextrin, reference compound], for which, for the setting “Study O, 0.03 to 30 mM, 6 hours”, the “ABCA1 mRNA level” value was “dose-dependent decrease”.
